Measured values as given in article PMC8519022, “Diarylethene‐Based Photoswitchable Inhibitors of Serine Proteases” (Angewandte Chemie (International Ed. in English), 2021).
*1 amine or outer side, *2 acyl side, *3 side chain or, on linkers, in order; H or OH if unused. Where a SMILES comes first, the peptide text is derived from it. Bridges are numbered along the chain shown (N, C = ends). Triazole bridges read from a SMILES are 1,4-linked. [ ]: non-standard residue; d: D form. X1 = Cc1sc(C(=O)[C@@H]2CCCN2[*:2])cc1C1=C(c2cc(C(=O)[*:1])sc2C)CCC1; Orn(N3) = [N-]=[N+]=NCCC[C@H](N)C(=O)O; Aha = [N-]=[N+]=NCC[C@H](N)C(=O)O; hCys = N[C@@H](CCS)C(=O)O; Pra = C#CC[C@H](N)C(=O)O

How the values were obtained:
trypsin = target: T1, trypsin (Bos taurus, UniProt P00760); conditions: for k H [M^−1 s^−1] (closed): pH 8.2
T1 sequence (P00760 24-246): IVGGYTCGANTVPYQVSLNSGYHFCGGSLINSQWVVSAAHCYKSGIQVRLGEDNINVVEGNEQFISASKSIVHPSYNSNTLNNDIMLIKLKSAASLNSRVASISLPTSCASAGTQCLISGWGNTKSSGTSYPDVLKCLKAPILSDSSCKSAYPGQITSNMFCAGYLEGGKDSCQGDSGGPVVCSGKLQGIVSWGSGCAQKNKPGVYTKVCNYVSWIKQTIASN
Description: Analysis of the proteolytic stability
Proteolytic stability of the peptides was characterized by determining hydrolysis rates (kH) by the action of trypsin in a 50 mM Tris–
HCl buffer, pH 8.2, supplemented with 25 mM CaCl2 and 0.005% Tween®20 at 22°C. The peptides at a concentration of 50 μM were
mixed with trypsin (0.5 μM) in a 2 mL total volume. At selected time intervals, 70 μL samples of the mixture were taken, quenched
by addition 130 μL 2% aqueous formic acid, and immediately analyzed by analytical HPLC. The kH values were calculated from the
time-dependent data assuming zero-order kinetics (zero-order kinetics applies due to the high substrate/enzyme ratio of 100 to 1).
For the fitting the linear part of the hydrolysis curve was taken excluding the last time point in which the entire peptide inhibitor was
analogues could hydrolyze at two positions: at the Lys (P1 position) of the inhibitory loop and after the stabilizing loop’s arginine
residue (P4 position).[S6] The ultimate product (i.e., cleaved at both positions) had, therefore, a MALDI-TOF-MS detectable mass
The identity of each peak was confirmed by MALDI -TOF-MS. Detection – 220 nm, hydrolysis time is indicated at each chromatogram.

[1] = target: T2, Bos taurus trypsin 1 (T1) (Bos taurus, UniProt P00760); experiment: Trypsin inhibition, Ki by Lineweaver-Burk analysis; conditions: for K i (closed) /K i (open): ratio of ring-closed to ring-open isomer, T1;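 as to all read-outs here: trypsin activity followed by spectrophotometric hydrolysis kinetics of the chromogenic substrate BAPNA in Tris buffer, Ki obtained from double-reciprocal Lineweaver–Burk plots at several substrate concentrations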
T2 sequence (P00760 24-246): T1 sequence (P00760 24-246)
Description: Protease inhibition assays
The inhibition of trypsin and α-chymotrypsin was investigated by two methods. First, the inhibition was determined at a fixed enzyme and substrate concentration, whereas the inhibitor concentration varied. By plotting the protease activity against an inhibitor’s concentration, IC50 (the half-maximal inhibitory concentration) was determined.
Lineweaver–Burk analysis (see below), the Ki values for all peptide inhibitors were determined with high accuracy.
All measurements were performed with p-nitroaniline-based chromogenic substrates (λabs = 405 nm) in 96-well microtiter plates using
EpochTM 2 microplate spectrophotometer. For trypsin measurements the Tris buffer (50 mM Tris-HCl, 25 mM CaCl2, 0.005% Tween®
For the measurements, a fresh 0.92 µM trypsin solution was prepared from the storage aliquot and kept on ice.
A stock solution of the substrate BAPNA (Nα-Benzoyl-DL-arginine 4-nitroanilide hydrochloride) at the concentration of 50 mM in
aqueous dimethyl sulfoxide (DMSO) (100 mg of BAPNA in 4.6 mL of DMSO:water mixture 1:1) was pre pared and stored at RT.
peptide solutions at the concentration of 100 µM, which was further diluted to 10, 1, or 0.1 µM if required, were prepared in Milli-Q®
deionized ultrapure water.
For the determination of IC50, a double dilution series of inhibit ors were prepared in a 96 -well plate (12 concentrations, two repeats
for each concentration, 200 µL of Tris buffer in each well). Subsequently, a trypsin solution (20 µL, 150 nM) was added to ea ch well
with the tested peptide and to the control row. Soluti ons in each well were intensely mixed using a multichannel pipette (from lower
concentration to higher). After a pre -incubation period (5 min), the substrate BAPNA was added to each well (20 µL, 25 mM).
solutions were thoroughly mixed with the multicha nnel pipette, and the kinetics of substrate hydrolysis was recorded with an interval
of 1 min between measurements over 20 min. The total volume in each well was 240 µL, final trypsin and BAPNA concentrations
were 12.5 nM and 2.08 mM, respectively. The mea n values of the two repeats of the slope of absorption vs. time curves were
calculated. The activities at different inhibitor concentrations were then calculated by taking the control curves’ slope val ues (no
inhibitor) as the 100% enzyme activity. The inh ibition activity IC 50 against α-chymotrypsin (α-chymotrypsin from bovine pancreas
type II) was measured in the same way except that a different substrate, Ac-EAPF-pNA (Ac-Glu-Ala-Pro-Phe-pNA), was used (20
Inhibitory constants Ki were determined by Lineweaver-Burk (LWB) double-reciprocal analysis according to a published protocol.[S5]
Briefly, a fresh inhibitor/enzyme mixture was prepared in a glass vial and distributed to 2x6 wells (200 µL in each well, enzyme
concentration after dilution 12 nM). An enzyme without an inhibitor was added to the control wells. Aliquots of varying substrate stock
solutions were added with a multichannel pipette to each well. For trypsin inhibition experiments, BAPNA (20 µL per well of 20, 22.7,
26, 29.8, 34, 40 mM) and for α-chymotrypsin Ac-EAPF-pNA (20 µL per well of 16, 12.48, 10, 8, 6.4, 5.44 mM) were used, respectively.
Well contents were thoroughly mixed using a multichannel pipette, and a plate reader was used to monitor the hydrolysis kinetics
(sampling interval of 1 min over 20 min).

[2] = Photostationary state under UV irradiation / photoconversion; format: physicochemical; conditions: deoxygenated water, 22 °C, continuous UV irradiation 320-400 nm; values with * by RP-HPLC
Description: Table S3 Photostationary states (PSS) for the studied peptides in deoxygenated water at 22 °C determined as the maximal conversion of the ring-open form to
ring-closed form under continuous UV irradiation (spectral range of 320-400 nm).
* As was determined by RP-HPLC analysis. […]

| Compound | k H (closed) /k H (open) (trypsin) | k H [M^−1 s^−1] (closed) (trypsin) | Ki ([1]; K i [nM] (open)) | PSS, % (maximal conversion of ring-open to ring-closed form) [2] [%] | K i (closed) /K i (open) [1] | Ki ([1]; K i [nM] (closed)) |
| --- | --- | --- | --- | --- | --- | --- |
| CC[C@H](C)[C@@H]1NC(=O)[C@@H]2CCCN2C(=O)[C@@H]2CCCN2C(=O)[C@H]([C@@H](C)CC)NC(=O)[C@H](CO)NC(=O)[C@H](CCCCN)NC(=O)[C@H]([C@@H](C)O)NC(=O)[C@@H]2Cc3cn(nn3)CCC[C@H](NC1=O)C(=O)N[C@@H](CCCNC(=N)N)C(=O)N[C@@H](CC(C)C)C(=O)N1CCC[C@H]1C(=O)c1cc(c(C)s1)C1=C(CCC1)c1cc(sc1C)C(=O)N[C@@H](C(C)C)C(=O)N[C@@H](Cc1ccccc1)C(=O)N2 [Peptide S12i] (VF[Pra]TKSIPPI[Orn(N3)]RL; triazole 3-11; linker N-C via X1) | 3.0 | 4.2±0.4×10^−2 M^−1 s^−1 | 2440 ± 215 |  |  |  |
| CC[C@H](C)[C@@H]1NC(=O)[C@@H]2CCCN2C(=O)[C@@H]2CCCN2C(=O)[C@H]([C@@H](C)CC)NC(=O)[C@H](CO)NC(=O)[C@H](CCCCN)NC(=O)[C@H]([C@@H](C)O)NC(=O)[C@@H]2Cc3cn(nn3)CC[C@H](NC1=O)C(=O)N[C@@H](CCCNC(=N)N)C(=O)N1CCC[C@H]1C(=O)c1cc(c(C)s1)C1=C(CCC1)c1cc(sc1C)C(=O)N[C@@H](Cc1ccccc1)C(=O)N2 [Peptide S6i] (F[Pra]TKSIPPI[Aha]R; triazole 2-10; linker N-C via X1) | 5.8 | 1.1±0.2×10^−1 M^−1 s^−1 | 441 ± 43 | 39.6 | 17.5 |  |
| CC[C@H](C)[C@@H]1NC(=O)[C@@H]2CCCN2C(=O)[C@@H]2CCCN2C(=O)[C@H]([C@@H](C)CC)NC(=O)[C@H](CO)NC(=O)[C@H](CCCCN)NC(=O)[C@H]([C@@H](C)O)NC(=O)[C@@H]2CSSC[C@H](NC1=O)C(=O)N[C@@H](Cc1ccccc1)C(=O)N1CCC[C@H]1C(=O)c1cc(c(C)s1)C1=C(CCC1)c1cc(sc1C)C(=O)N[C@@H](C(C)C)C(=O)N[C@@H](CCCNC(=N)N)C(=O)N2 [Peptide S8n] (VRCTKSIPPICF; disulfide 3-11; linker N-C via X1) | 4.1 | 5.3±1.4×10^−4 M^−1 s^−1 | 5.2 ± 0.4 |  |  | 125 ± 8 |
| CC[C@H](C)[C@@H]1NC(=O)[C@@H]2CCCN2C(=O)[C@@H]2CCCN2C(=O)[C@H]([C@@H](C)CC)NC(=O)[C@H](CO)NC(=O)[C@H](CCCCN)NC(=O)[C@H]([C@@H](C)O)NC(=O)[C@@H]2Cc3cn(nn3)CCC[C@H](NC1=O)C(=O)N[C@@H](Cc1ccccc1)C(=O)N1CCC[C@H]1C(=O)c1cc(c(C)s1)C1=C(CCC1)c1cc(sc1C)C(=O)N[C@@H](CCCNC(=N)N)C(=O)N2 [Peptide S7n] (R[Pra]TKSIPPI[Orn(N3)]F; triazole 2-10; linker N-C via X1) | 30.5 | 6.1±1.2×10^−2 M^−1 s^−1 | 63.4 ± 4.4 |  |  | 2200 ± 214 |
| CC[C@H](C)[C@@H]1NC(=O)[C@@H]2CCCN2C(=O)[C@@H]2CCCN2C(=O)[C@H]([C@@H](C)CC)NC(=O)[C@H](CO)NC(=O)[C@H](CCCCN)NC(=O)[C@H]([C@@H](C)O)NC(=O)[C@@H]2CSSCC[C@H](NC1=O)C(=O)N[C@@H](Cc1ccccc1)C(=O)N1CCC[C@H]1C(=O)c1cc(c(C)s1)C1=C(CCC1)c1cc(sc1C)C(=O)N[C@@H](CCCNC(=N)N)C(=O)N2 [Peptide S5n] (RCTKSIPPI[hCys]F; disulfide 2-10; linker N-C via X1) | 13.6 | 3.4±0.5×10^−2 M^−1 s^−1 | 95 ± 6 |  |  | 231 ± 14 |
| CC[C@H](C)[C@@H]1NC(=O)[C@@H]2CCCN2C(=O)[C@@H]2CCCN2C(=O)[C@H]([C@@H](C)CC)NC(=O)[C@H](CO)NC(=O)[C@H](CCCCN)NC(=O)[C@H]([C@@H](C)O)NC(=O)[C@@H]2CSSCC[C@H](NC1=O)C(=O)N[C@@H](CCCNC(=N)N)C(=O)N1CCC[C@H]1C(=O)c1cc(c(C)s1)C1=C(CCC1)c1cc(sc1C)C(=O)N[C@@H](Cc1ccccc1)C(=O)N2 [Peptide S5i] (FCTKSIPPI[hCys]R; disulfide 2-10; linker N-C via X1) | 1.7 | 5.0±0.8×10^−3 M^−1 s^−1 | 102 ± 14 |  |  | 182 ± 16 |
| CC[C@H](C)[C@@H]1NC(=O)[C@@H]2CCCN2C(=O)[C@@H]2CCCN2C(=O)[C@H]([C@@H](C)CC)NC(=O)[C@H](CO)NC(=O)[C@H](CCCCN)NC(=O)[C@H]([C@@H](C)O)NC(=O)[C@@H]2CSSC[C@H](NC1=O)C(=O)N[C@@H](Cc1ccccc1)C(=O)N1CCC[C@H]1C(=O)c1cc(c(C)s1)C1=C(CCC1)c1cc(sc1C)C(=O)N[C@@H](CCCNC(=N)N)C(=O)N2 [Peptide S1n] (RCTKSIPPICF; disulfide 2-10; linker N-C via X1) |  |  | 4.9 ± 0.3 |  |  |  |
| CC[C@H](C)[C@@H]1NC(=O)[C@@H]2CCCN2C(=O)[C@@H]2CCCN2C(=O)[C@H]([C@@H](C)CC)NC(=O)[C@H](CO)NC(=O)[C@H](CCCCN)NC(=O)[C@H]([C@@H](C)O)NC(=O)[C@@H]2CSSC[C@H](NC1=O)C(=O)N[C@@H](CCCNC(=N)N)C(=O)N1CCC[C@H]1C(=O)c1cc(c(C)s1)C1=C(CCC1)c1cc(sc1C)C(=O)N[C@@H](Cc1ccccc1)C(=O)N2 [Peptide S1i] (FCTKSIPPICR; disulfide 2-10; linker N-C via X1) |  |  | 13.4 ± 1.4 |  |  |  |
| CC[C@H](C)[C@@H]1NC(=O)[C@@H]2CCCN2C(=O)[C@@H]2CCCN2C(=O)[C@H]([C@@H](C)CC)NC(=O)[C@H](CO)NC(=O)[C@H](CCCCN)NC(=O)[C@H]([C@@H](C)O)NC(=O)[C@@H]2Cc3cn(nn3)CCC[C@H](NC1=O)C(=O)N[C@@H](CCCNC(=N)N)C(=O)N1CCC[C@H]1C(=O)c1cc(c(C)s1)C1=C(CCC1)c1cc(sc1C)C(=O)N[C@@H](Cc1ccccc1)C(=O)N2 [Peptide S7i] (F[Pra]TKSIPPI[Orn(N3)]R; triazole 2-10; linker N-C via X1) | 73 | 5.5±1×10^−1 M^−1 s^−1 | 263 ± 30 |  |  | 7220 ± 360 |
| CC[C@H](C)[C@@H]1NC(=O)[C@@H]2CCCN2C(=O)[C@@H]2CCCN2C(=O)[C@H]([C@@H](C)CC)NC(=O)[C@H](CO)NC(=O)[C@H](CCCCN)NC(=O)[C@H]([C@@H](C)O)NC(=O)[C@@H]2Cc3cn(nn3)CC[C@H](NC1=O)C(=O)N[C@@H](CCCNC(=N)N)C(=O)N[C@@H](CC(C)C)C(=O)N1CCC[C@H]1C(=O)c1cc(c(C)s1)C1=C(CCC1)c1cc(sc1C)C(=O)N[C@@H](C(C)C)C(=O)N[C@@H](Cc1ccccc1)C(=O)N2 [Peptide S11i] (VF[Pra]TKSIPPI[Aha]RL; triazole 3-11; linker N-C via X1) | 3.3 | 9.1±1×10^−2 M^−1 s^−1 | 1720 ± 130 | 80.2 | 3.1 |  |
| CC[C@H](C)[C@@H]1NC(=O)[C@@H]2CCCN2C(=O)[C@@H]2CCCN2C(=O)[C@H]([C@@H](C)CC)NC(=O)[C@H](CO)NC(=O)[C@H](CCCCN)NC(=O)[C@H]([C@@H](C)O)NC(=O)[C@H](C)NC(=O)c2cc(c(C)s2)C2=C(CCC2)c2cc(sc2C)C(=O)[C@@H]2CCCN2C(=O)[C@H](C)NC1=O [Peptide S3] (ATKSIPPIA; linker N-C via X1) |  |  | 101 ± 9 |  |  |  |
| CC[C@H](C)[C@@H]1NC(=O)[C@@H]2CCCN2C(=O)[C@@H]2CCCN2C(=O)[C@H]([C@@H](C)CC)NC(=O)[C@H](CO)NC(=O)[C@H](CCCCN)NC(=O)[C@H]([C@@H](C)O)NC(=O)[C@@H]2Cc3cn(nn3)CC[C@H](NC1=O)C(=O)N[C@@H](Cc1ccccc1)C(=O)N1CCC[C@H]1C(=O)c1cc(c(C)s1)C1=C(CCC1)c1cc(sc1C)C(=O)N[C@@H](CCCNC(=N)N)C(=O)N2 [Peptide S6n] (R[Pra]TKSIPPI[Aha]F; triazole 2-10; linker N-C via X1) | 3.7 | 2.5±0.8×10^−2 M^−1 s^−1 | 135 ± 8 | 46.6 | 8.3 |  |
| CC[C@H](C)[C@@H]1NC(=O)[C@@H]2CCCN2C(=O)[C@@H]2CCCN2C(=O)[C@H]([C@@H](C)CC)NC(=O)[C@H](CO)NC(=O)[C@H](CCCCN)NC(=O)[C@H]([C@@H](C)O)NC(=O)[C@@H]2CSSC[C@H](NC1=O)C(=O)N[C@@H](Cc1ccccc1)C(=O)N[C@@H](CC(C)C)C(=O)N1CCC[C@H]1C(=O)c1cc(c(C)s1)C1=C(CCC1)c1cc(sc1C)C(=O)N[C@@H](CCCNC(=N)N)C(=O)N2 [Peptide S9n] (RCTKSIPPICFL; disulfide 2-10; linker N-C via X1) | 8.7 | 1.3±0.1×10^−3 M^−1 s^−1 | 8.3 ± 0.6 |  |  | 55 ± 3.8 |
| CC[C@H](C)[C@@H]1NC(=O)[C@@H]2CCCN2C(=O)[C@@H]2CCCN2C(=O)[C@H]([C@@H](C)CC)NC(=O)[C@H](CO)NC(=O)[C@H](CCCCN)NC(=O)[C@H]([C@@H](C)O)NC(=O)c2cc(c(C)s2)C2=C(CCC2)c2cc(sc2C)C(=O)[C@@H]2CCCN2C1=O [Peptide S4] (TKSIPPI; linker N-C via X1) |  |  | 22 ± 3 |  |  |  |
